Data: patent EP4603105A1, “PHARMACEUTICAL COMPOSITION CONTAINING CYCLIC COMPOUND HAVING SELECTIVE KRAS INHIBITORY EFFECT AGAINST HRAS AND NRAS” (CHUGAI SEIYAKU KABUSHIKI KAISHA, priority 2022, dated 2024)
Like-named read-outs stand apart in the source and are kept apart here.

Key:
[1] = molecular target: GDP-bound NRAS wild-type protein (Homo sapiens, UniProt P01111); assay: Binding to NRAS by surface plasmon resonance (SPR), KD and KD ratio to KRAS
In short: (§1)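 Recombinant RAS proteins bearing a biotinylated Avi tag and loaded with GDP served as the captured ligand, recaptured fresh every cycle. Binding responses were referenced to an uncoated surface and a buffer-only blank cycle. Dissociation constants were obtained by 1:1 model fitting at 30°C.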

HRAS wild-type protein = HRAS wild-type protein (Homo sapiens, UniProt P01112); assay: Binding to HRAS by surface plasmon resonance (SPR), KD and KD ratio to KRAS
Chain of HRAS wild-type protein (P01112 whole entry): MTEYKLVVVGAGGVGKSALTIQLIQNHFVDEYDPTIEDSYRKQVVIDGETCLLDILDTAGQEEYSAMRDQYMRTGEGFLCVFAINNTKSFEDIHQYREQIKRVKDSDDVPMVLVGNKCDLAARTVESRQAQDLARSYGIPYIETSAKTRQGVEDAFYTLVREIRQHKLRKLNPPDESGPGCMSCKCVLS
In short: as §1

[2] = molecular target: GDP-bound KRAS wild-type protein (Homo sapiens, UniProt P01116); assay: Binding to KRAS by surface plasmon resonance (SPR), dissociation constant KD
Chain of GDP-bound KRAS wild-type protein (P01116 1-188 isoform P01116-2): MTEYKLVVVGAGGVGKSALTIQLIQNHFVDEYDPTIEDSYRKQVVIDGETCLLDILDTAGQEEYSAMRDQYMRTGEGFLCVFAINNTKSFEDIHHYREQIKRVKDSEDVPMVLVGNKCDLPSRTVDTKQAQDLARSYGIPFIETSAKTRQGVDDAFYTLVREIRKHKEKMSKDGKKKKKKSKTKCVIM
In short: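 Affinity is measured by surface plasmon resonance at 30°C against captured, GDP-loaded RAS carrying a biotinylated Avi tag. Compounds are titrated by single-cycle kinetics, and KD comes from a 1:1 fit.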

[3] = system: human lung cancer strain NCI-H441; assay: NCI-H441 cell proliferation inhibitory activity (CellTiter-Glo, 4 days); format: cell-based; conditions: read-out: NCl-H441 IC50
In short: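 Signal came from […] measured per well once the reagent was added. Beforehand, cells were cultured at 37°C and 5% carbon dioxide on a compound series serially diluted in dimethyl sulfoxide.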

[4] = ratio of KD with respect to GDP-bound NRAS wild-type protein to KD with respect to KRAS
[5] = ratio of KD with respect to HRAS wild-type protein to KD with respect to KRAS
[6] = Single Cycle Kinetics, 1:1 binding model
[7] = 50% proliferation inhibitory concentration, four days
[8] = ratio of KD for GDP-bound NRAS wild-type protein to KD for KRAS
[9] = ratio of KD for HRAS wild-type protein to KD for KRAS

Chain of GDP-bound NRAS wild-type protein (P01111 whole entry): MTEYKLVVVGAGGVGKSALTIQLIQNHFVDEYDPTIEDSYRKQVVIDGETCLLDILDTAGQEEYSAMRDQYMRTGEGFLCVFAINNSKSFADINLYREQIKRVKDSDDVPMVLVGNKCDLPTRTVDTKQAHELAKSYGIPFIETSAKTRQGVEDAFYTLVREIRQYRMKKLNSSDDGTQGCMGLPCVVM

Row | SMILES | NRAS /KRAS [1, 4] | HRAS /KRAS (HRAS wild-type protein; [5]) | Kd [2, 6] [nM] | IC50 [3, 7] [nM] | NRAS /KRAS [1, 8] | HRAS /KRAS (HRAS wild-type protein; [9]) | Kd ([2]; Single Cycle Kinetics) [nM] | IC50 ([3]; NCI-H441 cells, 4 days) [nM] | Kd ([2]; 1:1 binding model) [nM]
1 | CCO[C@@H]1C[C@H]2C(=O)NC3(CCC3)C(=O)N(C)[C@@H](C3CCCC3)C(=O)N(C)[C@H](C(=O)N3CCOCC3)CC(=O)N(C)[C@@H](Cc3ccc(C#N)cc3)C(=O)N[C@@H]([C@@H](C)CC)C(=O)N(C)CC(=O)N(C)[C@H]3CCCCCN(C3=O)[C@@H](Cc3ccc(F)cc3)C(=O)N(C)CC(=O)N[C@@H](CCc3cc(F)c(C(F)(F)F)c(F)c3)C(=O)N2C1 [PP1187] | B (a compound having 3 or more and less than 10 is denoted as B) | B (a compound having 3 or more and less than 10 is denoted as B) | 0.12 | 52.3 |  |  |  |  | 
2 | CCCO[C@@H]1C[C@H]2C(=O)NC3(CC(C)(C)C3)C(=O)N(C)[C@@H](C3CCCC3)C(=O)N(C)[C@H](C(=O)N(C)CC)CC(=O)N(C)[C@@H](COCC)C(=O)N[C@@H]([C@@H](C)CC)C(=O)N(C3CC3)CC(=O)N(C)[C@H]3C/C=C\CCN(C3=O)[C@@H](Cc3ccc(C)cc3)C(=O)N(C)CC(=O)N[C@@H](CCc3ccc(C(F)(F)F)c(OC)c3)C(=O)N2C1 [PP3466] |  |  |  |  | A (a compound having 10 or more and less than 20 is denoted as A) | B (a compound having 3 or more and less than 10 is denoted as B) | 0.97 | 39.8 | 
3 | CCC[C@H]1C(=O)N[C@@H]([C@@H](C)CC)C(=O)N(C)CC(=O)N(C)[C@H]2C/C=C\CCN(C2=O)[C@@H](Cc2ccc(C)cc2)C(=O)N(C)CC(=O)N[C@@H](CCc2cc(F)c(C(F)(F)F)c(F)c2)C(=O)N2CC3(CC3)C[C@H]2C(=O)N(C)C2(CCC2)C(=O)N(C)[C@@H](C(CC)CC)C(=O)N(C)[C@H](C(=O)N(C)C)CC(=O)N1C [PP3329] |  |  |  |  | A (a compound having 10 or more and less than 20 is denoted as A) | B (a compound having 3 or more and less than 10 is denoted as B) | 0.23 | 8.7 | 
4 | CCCO[C@@H]1C[C@H]2C(=O)NC3(CC(C)(C)C3)C(=O)N(C)[C@@H](C3CCCC3)C(=O)N(C)[C@H](C(=O)N(C)CC)CC(=O)N[C@@H](COCC)C(=O)N[C@@H]([C@@H](C)CC)C(=O)N3C[C@@H](F)C[C@H]3C(=O)N(C)[C@H]3C/C=C\CCN(C3=O)[C@@H](Cc3ccc(C)cc3)C(=O)N(C)CC(=O)N[C@@H](CCc3ccc(C(F)(F)F)c(OC)c3)C(=O)N2C1 [PP3443] |  |  |  |  | A (a compound having 10 or more and less than 20 is denoted as A) | A (a compound having 10 or more and less than 20 is denoted as A) | 0.75 | 73.5 | 
5 | CCO[C@@H]1C[C@H]2C(=O)NC3(CCC3)C(=O)N(C)[C@@H](C3CCCC3)C(=O)N(C)[C@H](C(=O)N3CCCC3)CC(=O)N(C)[C@@H](CC3CC3)C(=O)N[C@@H]([C@@H](C)CC)C(=O)N(C)CC(=O)N(C)[C@H]3C/C=C\CCN(C3=O)[C@@H](Cc3ccc(C(F)(F)F)cc3)C(=O)N(C)CC(=O)N[C@@H](CCc3cc(F)c(C(F)(F)F)c(F)c3)C(=O)N2C1 [PP1296] | AA (a compound having 20 or more is denoted as AA) | A (a compound having 10 or more and less than 20 is denoted as A) | 0.12 | 14.7 |  |  |  |  | 
6 | CCC(CC)[C@H]1C(=O)N(C)[C@H](C(=O)N(C)C)CC(=O)N(C)[C@@H](COC)C(=O)N[C@@H]([C@@H](C)CC)C(=O)N(C2CC2)CC(=O)N(C)[C@H]2C/C=C\CCN(C2=O)[C@@H](Cc2ccc(C)cc2)C(=O)N(C)CC(=O)N[C@@H](CCc2ccc(Cl)c(Cl)c2)C(=O)N2C[C@H](OC(C)C)C[C@H]2C(=O)NC2(CC(C)(C)C2)C(=O)N1C [PP2509] |  |  |  |  | AA (a compound having 20 or more is denoted as AA) | A (a compound having 10 or more and less than 20 is denoted as A) |  | 91.3 | 2.6
7 | CCC[C@H]1C(=O)N[C@@H]([C@@H](C)CC)C(=O)N(C)CC(=O)N(C)[C@H]2C/C=C\CCN(C2=O)[C@@H](Cc2ccc(C)cc2)C(=O)N(C)CC(=O)N[C@@H](CCc2ccc(Cl)c(Cl)c2)C(=O)N2C[C@H](OC(C)C)C[C@H]2C(=O)NC2(CC(C)(C)C2)C(=O)N(C)[C@@H](C(CC)CC)C(=O)N(C)[C@H](C(=O)N(C)C)CC(=O)N1C [PP2537] |  |  |  |  | AA (a compound having 20 or more is denoted as AA) | A (a compound having 10 or more and less than 20 is denoted as A) |  | 75.1 | 0.74
8 | CCO[C@@H]1C[C@H]2C(=O)NC3(CC(C)(C)C3)C(=O)N(C)[C@@H](C(CC)CC)C(=O)N(C)[C@H](C(=O)N(C)C)CC(=O)N(C)[C@@H](COC)C(=O)N[C@@H]([C@@H](C)CC)C(=O)N3CCC[C@H]3C(=O)N(C)[C@H]3C/C=C\CCN(C3=O)[C@@H](Cc3ccc(C(F)(F)F)cc3)C(=O)N(C)CC(=O)N[C@@H](CCc3ccc(Cl)c(Cl)c3)C(=O)N2C1 [PP2635] |  |  |  |  | AA (a compound having 20 or more is denoted as AA) | A (a compound having 10 or more and less than 20 is denoted as A) |  | 50.2 | 0.97
9 | C#CC[C@H]1C(=O)N[C@@H]([C@@H](C)CC)C(=O)N(C)CC(=O)N(C)[C@H]2C/C=C\CCN(C2=O)[C@@H](Cc2ccc(C(F)(F)F)cc2)C(=O)N(C)CC(=O)N[C@@H](CCc2ccc(C(F)(F)F)c(OC)c2)C(=O)N2C[C@H](OCC)C[C@H]2C(=O)OC2(CCC2)C(=O)N(C)[C@@H](C2CCCC2)C(=O)N(C)[C@H](C(=O)N(C)C)CC(=O)N1C [PP3373] |  |  |  |  | A (a compound having 10 or more and less than 20 is denoted as A) | A (a compound having 10 or more and less than 20 is denoted as A) | 0.21 | 12.5 | 
10 | CCC[C@H]1C(=O)N[C@@H](CC(C)C)C(=O)N(C2CC2)CC(=O)N(C)[C@H]2C/C=C\CCN(C2=O)[C@@H](Cc2ccc(C)cc2)C(=O)N(C)CC(=O)N[C@@H](CCc2cc(F)c(C(F)(F)F)c(F)c2)C(=O)N2C[C@H](OCC)C[C@H]2C(=O)NC2(CCC2)C(=O)N(C)[C@@H](C2CCCC2)C(=O)N(C)[C@H](C(=O)N(C)C)CC(=O)N1C [PP2532] |  |  |  |  | A (a compound having 10 or more and less than 20 is denoted as A) | B (a compound having 3 or more and less than 10 is denoted as B) |  | 144 | 4.1
11 | CCO[C@@H]1C[C@H]2C(=O)NC3(CC(C)(C)C3)C(=O)N(C)[C@@H](C3CCCC3)C(=O)N(C)[C@H](C(=O)N(C)C)CC(=O)N(C)[C@@H]([C@H](C)OC)C(=O)N[C@@H]([C@@H](C)CC)C(=O)N(C3CC3)CC(=O)N(C)[C@H]3C/C=C\CCN(C3=O)[C@@H](Cc3ccc(C(F)(F)F)cc3)C(=O)N(C)CC(=O)N[C@@H](CCc3ccc(C(F)(F)F)c(OC)c3)C(=O)N2C1 [PP3173] |  |  |  |  | B (a compound having 3 or more and less than 10 is denoted as B) | B (a compound having 3 or more and less than 10 is denoted as B) | 0.57 | 33.1 | 
12 | CCC[C@H]1C(=O)N[C@@H]([C@@H](C)CC)C(=O)N(C)CC(=O)N(C)[C@H]2C/C=C\CCN(C2=O)[C@@H](Cc2ccc(C(F)(F)F)cc2)C(=O)N(C)CC(=O)N[C@@H](CCc2ccc(C(F)(F)F)c(OC)c2)C(=O)N2CC3(CC3)C[C@H]2C(=O)NC2(CCC2)C(=O)N(C)[C@@H](C2CCCC2)C(=O)N(C)[C@H](C(=O)N(C)C)CC(=O)N1C [PP3438] |  |  |  |  | A (a compound having 10 or more and less than 20 is denoted as A) | A (a compound having 10 or more and less than 20 is denoted as A) | 0.062 | 8.9 | 
